Experimental data: US10947242B2, “[1,2,4]triazolo[1,5and#8208;A]pyrimidine compounds as PDE2 inhibitors” (Janssen Pharmaceutica NV, priority 2016, dated 2021)
Read-outs that look alike come from different tables or passages of the source.

Assays:
[1] = molecular target: T1, Human recombinant PDE2A (hPDE2A) (Homo sapiens, UniProt O00408); experiment: In vitro assay PDE2A (SPA, 3H-cGMP hydrolysis); format: biochemical; settings: for IC50: read-out: hPDE2A pIC50 (converted); for Emax: read-out: hPDE2A Emax
T1 construct: His tag (inferred from metal chelate purification); made in house; host or cells: Sf9 insect cells (baculovirus)

[2] = molecular target: T2, Human recombinant PDE3A (hPDE3A) (Homo sapiens, UniProt Q14432); experiment: In vitro assay PDE3A (SPA, 3H-cAMP hydrolysis); format: biochemical;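 note: the method names PDE3A and the table heading PDE3B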
T2 construct: purchased Scottish Biomedical; host or cells: Sf9 insect cells
Outline: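 Human PDE3A, cloned from brain, as partially purified Sf9 lysate. Substrate 0.4 μM cAMP plus [3H]-cAMP (2.4 μCi/ml final) in 50 mM Tris pH 7.8, 8.3 mM MgCl2, 1.7 mM EGTA, 60 min at room temperature, 1% DMSO final. Hydrolysis read by SPA scintillation counting against no-enzyme blanks and DMSO controls.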

[3] = molecular target: T3, Human recombinant PDE10A (hPDE10A) (Homo sapiens, UniProt Q9Y233); experiment: In vitro assay PDE10A, human clone (SPA, 3H-cAMP hydrolysis); format: biochemical; settings: human clone (h), default
T3 construct: His tag (inferred from metal chelate purification); made in house; host or cells: Sf9 insect cells (baculovirus)
Outline: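 Human recombinant PDE10A was expressed in Sf9 cells via baculovirus and incubated with compound in 50 mM Tris pH 7.8, 8.3 mM MgCl2, 1.7 mM EGTA. Substrate was 60 nM cAMP plus 0.008 μCi 3H-cAMP for 60 min at room temperature, read by SPA scintillation counting. Controls used 1% DMSO, and blanks omitted enzyme.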

PDE2A = molecular target: T4, PDE2A (Rattus norvegicus, UniProt Q01062); experiment: PDE2 occupancy by test compounds, ex-vivo autoradiography with [3H]B-17a; format: in vivo, Male Wistar rats; settings: sc, 10 mg/kg, route SC (subcutaneous), percentage receptor occupancy, ex-vivo autoradiography, striatum
T4 construct: Twenty μm-thick striatal sections were cut; from tissue; host or cells: rat brain, striatal sections
T4 sequence (Q01062 1-928): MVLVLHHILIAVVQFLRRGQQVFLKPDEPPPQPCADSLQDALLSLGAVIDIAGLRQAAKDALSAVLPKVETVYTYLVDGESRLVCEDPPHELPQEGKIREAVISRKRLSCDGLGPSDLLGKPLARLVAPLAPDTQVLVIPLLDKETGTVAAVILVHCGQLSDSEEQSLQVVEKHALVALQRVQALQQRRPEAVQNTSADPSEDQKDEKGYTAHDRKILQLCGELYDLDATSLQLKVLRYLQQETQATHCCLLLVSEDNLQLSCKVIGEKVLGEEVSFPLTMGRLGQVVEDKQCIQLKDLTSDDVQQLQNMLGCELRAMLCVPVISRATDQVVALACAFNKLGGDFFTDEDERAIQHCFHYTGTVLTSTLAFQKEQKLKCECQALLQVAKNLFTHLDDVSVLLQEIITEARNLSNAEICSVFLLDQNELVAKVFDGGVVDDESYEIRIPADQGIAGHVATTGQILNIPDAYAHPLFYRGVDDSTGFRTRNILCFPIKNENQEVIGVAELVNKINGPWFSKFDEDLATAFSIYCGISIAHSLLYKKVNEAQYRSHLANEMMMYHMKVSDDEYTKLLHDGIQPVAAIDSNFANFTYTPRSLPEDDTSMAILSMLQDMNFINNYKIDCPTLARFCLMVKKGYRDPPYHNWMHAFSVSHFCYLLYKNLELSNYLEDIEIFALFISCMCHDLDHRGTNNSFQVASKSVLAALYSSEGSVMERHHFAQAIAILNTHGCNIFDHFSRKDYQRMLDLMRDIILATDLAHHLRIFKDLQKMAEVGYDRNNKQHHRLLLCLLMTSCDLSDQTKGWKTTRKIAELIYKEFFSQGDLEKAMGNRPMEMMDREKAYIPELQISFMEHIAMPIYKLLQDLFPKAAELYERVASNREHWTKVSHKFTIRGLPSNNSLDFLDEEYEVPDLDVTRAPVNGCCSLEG

T1 sequence (O00408 whole entry): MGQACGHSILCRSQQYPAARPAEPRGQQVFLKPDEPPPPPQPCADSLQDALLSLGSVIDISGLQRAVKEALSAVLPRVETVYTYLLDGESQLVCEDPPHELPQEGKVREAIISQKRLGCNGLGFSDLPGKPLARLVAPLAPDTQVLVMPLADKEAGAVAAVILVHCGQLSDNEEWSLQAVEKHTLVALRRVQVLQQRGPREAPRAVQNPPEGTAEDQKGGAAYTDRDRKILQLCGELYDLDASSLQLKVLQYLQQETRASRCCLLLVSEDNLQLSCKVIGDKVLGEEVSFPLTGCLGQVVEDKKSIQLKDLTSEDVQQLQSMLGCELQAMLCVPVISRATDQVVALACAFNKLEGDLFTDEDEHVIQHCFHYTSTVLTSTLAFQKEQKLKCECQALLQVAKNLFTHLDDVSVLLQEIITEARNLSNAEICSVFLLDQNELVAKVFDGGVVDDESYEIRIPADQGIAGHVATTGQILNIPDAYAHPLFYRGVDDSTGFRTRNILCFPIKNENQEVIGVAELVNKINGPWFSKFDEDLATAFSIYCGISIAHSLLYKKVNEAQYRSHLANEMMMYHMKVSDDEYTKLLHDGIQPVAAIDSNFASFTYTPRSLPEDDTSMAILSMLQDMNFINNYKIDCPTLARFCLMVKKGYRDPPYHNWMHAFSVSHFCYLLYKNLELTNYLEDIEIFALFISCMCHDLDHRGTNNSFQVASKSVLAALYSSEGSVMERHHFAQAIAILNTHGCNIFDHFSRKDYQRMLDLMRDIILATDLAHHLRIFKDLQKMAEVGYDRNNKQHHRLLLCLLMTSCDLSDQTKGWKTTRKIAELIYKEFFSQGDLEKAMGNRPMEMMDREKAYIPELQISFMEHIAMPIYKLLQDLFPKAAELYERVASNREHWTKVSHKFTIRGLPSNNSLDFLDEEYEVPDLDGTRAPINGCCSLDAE
T2 sequence (Q14432 whole entry): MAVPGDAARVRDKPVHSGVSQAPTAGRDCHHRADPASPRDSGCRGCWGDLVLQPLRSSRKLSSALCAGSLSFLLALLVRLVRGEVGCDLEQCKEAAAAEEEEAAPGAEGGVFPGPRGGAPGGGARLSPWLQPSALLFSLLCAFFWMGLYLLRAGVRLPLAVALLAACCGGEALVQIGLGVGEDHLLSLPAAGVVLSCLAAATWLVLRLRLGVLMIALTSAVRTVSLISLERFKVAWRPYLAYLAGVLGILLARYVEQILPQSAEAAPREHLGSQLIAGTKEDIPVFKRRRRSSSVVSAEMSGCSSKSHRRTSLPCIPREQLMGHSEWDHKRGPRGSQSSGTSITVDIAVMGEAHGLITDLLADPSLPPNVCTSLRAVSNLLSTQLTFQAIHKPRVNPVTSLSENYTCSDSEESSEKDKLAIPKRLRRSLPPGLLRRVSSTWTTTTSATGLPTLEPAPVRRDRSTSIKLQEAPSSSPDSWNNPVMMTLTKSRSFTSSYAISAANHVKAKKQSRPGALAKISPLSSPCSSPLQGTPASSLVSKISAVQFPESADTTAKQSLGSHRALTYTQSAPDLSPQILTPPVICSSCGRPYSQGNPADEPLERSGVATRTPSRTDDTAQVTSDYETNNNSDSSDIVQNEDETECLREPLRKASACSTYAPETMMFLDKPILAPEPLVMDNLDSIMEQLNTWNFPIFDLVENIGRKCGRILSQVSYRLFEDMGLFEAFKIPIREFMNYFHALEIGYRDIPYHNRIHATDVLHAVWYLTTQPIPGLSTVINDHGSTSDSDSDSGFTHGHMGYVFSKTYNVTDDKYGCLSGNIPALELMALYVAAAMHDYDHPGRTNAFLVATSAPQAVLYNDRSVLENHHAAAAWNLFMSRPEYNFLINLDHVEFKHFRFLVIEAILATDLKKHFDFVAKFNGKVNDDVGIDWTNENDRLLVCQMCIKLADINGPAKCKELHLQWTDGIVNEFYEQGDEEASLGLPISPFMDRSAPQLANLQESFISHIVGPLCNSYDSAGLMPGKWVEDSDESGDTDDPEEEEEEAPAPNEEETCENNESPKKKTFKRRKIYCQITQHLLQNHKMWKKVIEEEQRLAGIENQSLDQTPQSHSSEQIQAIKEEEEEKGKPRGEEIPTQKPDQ
T3 sequence (Q9Y233 267-1055): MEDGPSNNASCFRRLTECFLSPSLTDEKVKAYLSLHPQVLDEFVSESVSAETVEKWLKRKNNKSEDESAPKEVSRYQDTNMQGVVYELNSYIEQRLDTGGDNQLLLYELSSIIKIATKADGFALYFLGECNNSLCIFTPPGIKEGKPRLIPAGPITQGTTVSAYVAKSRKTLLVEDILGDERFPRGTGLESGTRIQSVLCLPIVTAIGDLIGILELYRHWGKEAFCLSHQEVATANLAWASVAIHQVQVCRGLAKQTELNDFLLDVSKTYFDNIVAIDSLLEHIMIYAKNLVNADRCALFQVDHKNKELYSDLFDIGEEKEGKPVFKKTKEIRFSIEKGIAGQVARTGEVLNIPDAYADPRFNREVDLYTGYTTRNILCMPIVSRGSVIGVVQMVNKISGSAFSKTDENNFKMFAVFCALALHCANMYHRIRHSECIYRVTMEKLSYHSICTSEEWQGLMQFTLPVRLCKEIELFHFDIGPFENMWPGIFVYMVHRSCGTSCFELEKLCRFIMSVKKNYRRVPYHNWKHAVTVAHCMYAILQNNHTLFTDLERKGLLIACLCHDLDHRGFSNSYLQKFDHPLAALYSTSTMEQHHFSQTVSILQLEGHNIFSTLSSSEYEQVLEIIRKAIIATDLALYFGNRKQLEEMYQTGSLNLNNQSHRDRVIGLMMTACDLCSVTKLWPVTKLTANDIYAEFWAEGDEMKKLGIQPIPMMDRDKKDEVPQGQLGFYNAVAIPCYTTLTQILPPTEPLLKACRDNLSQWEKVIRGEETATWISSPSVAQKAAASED

IC50 ([1]; human recombinant PDE2A, 10 μM cGMP substrate): 0.229 nM | Emax ([1]; human recombinant PDE2A): 104% | Emax [1]: 104% | IC50 [1]: 0.229 nM | IC50 ([2]; hPDE3B pIC50, read-out: pIC50 (converted)): 145 nM | Emax ([2]; read-out: hPDE3B Emax, read-out: Emax): 96% | Emax ([3]; read-out: hPDE10A2 Emax): 101% | IC50 ([3]; read-out: hPDE10A2 pIC50 (converted)): 20.9 nM | receptor occupancy at 10 mg/kg (PDE2A): 88%
Structure (SMILES): C[C@@H]1CCN(C(=O)c2ccc3c(ccn3CCF)c2)C[C@H]1c1cc(C(F)F)nc2ncnn12 [Compound 89]
